Experiments:
[1] = system: corn; assay: Test C preemergence; type: in vivo, Zea mays; conditions: 0 to 100 scale (0 no effect, 100 complete control); for Plant response rating, Corn: Preemergence, 500 g ai/ha, visual rating after 10 days; for Corn plant response rating: Test C, preemergence, 125 g ai/ha
Procedure, shortened: (§1)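 Soil-applied (pre) and foliar (post, 1–2 leaf, 2–10 cm) sprays; surfactant-containing non-phytotoxic solvent vehicle; loam/sand substrate. Readout: visual % control at 10 d, greenhouse, versus untreated.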

[2] = system: ryegrass, Italian; assay: Test C postemergence; type: in vivo, Lolium multiflorum; conditions: 10 days
Procedure, shortened: as §1

[3] = system: oat, wild; assay: Test C postemergence; type: in vivo, Avena fatua; conditions: 10 days
Procedure, shortened: as §1

[4] = system: oat, wild; assay: Test C preemergence; type: in vivo, Avena fatua; conditions: 0 to 100 scale (0 no effect, 100 complete control); for Plant response rating, Oat, Wild: Preemergence, 500 g ai/ha, visual rating after 10 days; for Oat, Wild plant response rating: Test C, preemergence, 125 g ai/ha
Procedure, shortened: as §1

[5] = system: wheat; assay: Test C preemergence; type: in vivo, Triticum aestivum; conditions: 0 to 100 scale (0 no effect, 100 complete control); for Plant response rating, Wheat: Preemergence, 500 g ai/ha, visual rating after 10 days; for Wheat plant response rating: Test C, preemergence, 125 g ai/ha
Procedure, shortened: as §1

[6] = system: barnyardgrass; assay: Test C postemergence; type: in vivo, Echinochloa crusgalli; conditions: 10 days
Procedure, shortened: as §1

[7] = system: horseweed; assay: Test C postemergence; type: in vivo, Erigeron canadensis; conditions: 10 days
Procedure, shortened: as §1

[8] = system: wheat; assay: Test C postemergence; type: in vivo, Triticum aestivum; conditions: 10 days
Procedure, shortened: as §1

[9] = system: green foxtail; assay: Test C preemergence; type: in vivo, Setaria viridis; conditions: 0 to 100 scale (0 no effect, 100 complete control); for Plant response rating, Foxtail, Green: Preemergence, 500 g ai/ha, visual rating after 10 days; for Foxtail, Green plant response rating: Test C, preemergence, 125 g ai/ha
Procedure, shortened: as §1

[10] = system: kochia; assay: Test C postemergence; type: in vivo, Bassia scoparia; conditions: 10 days
Procedure, shortened: as §1

[11] = system: ducksalad; assay: Test D flooded paddy test; type: in vivo, Heteranthera limosa; conditions: 250 g ai/ha, applied to paddy water, visual rating after 13 to 14 days, scale 0 to 100 (0 no effect, 100 complete control)
Procedure, shortened: (§2)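 2-leaf plants; flood 3 cm above soil; compound dosed into paddy water; greenhouse 13–14 d; visual rating vs controls, 0–100 (100 = complete control); dash = not tested.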

[12] = system: rice; assay: Test D flooded paddy test; type: in vivo, Oryza sativa; conditions: 250 g ai/ha, applied to paddy water, visual rating after 13 to 14 days, scale 0 to 100 (0 no effect, 100 complete control)
Procedure, shortened: as §2

[13] = system: soybean; assay: Test C postemergence; type: in vivo, Glycine max; conditions: 10 days
Procedure, shortened: as §1

[14] = system: ragweed; assay: Test C postemergence; type: in vivo, Ambrosia artemisiifolia; conditions: 10 days
Procedure, shortened: as §1

[15] = system: blackgrass; assay: Test C postemergence; type: in vivo, Alopecurus myosuroides; conditions: 10 days
Procedure, shortened: as §1

[16] = system: green foxtail; assay: Test C postemergence; type: in vivo, Setaria viridis; conditions: 10 days
Procedure, shortened: as §1

[17] = system: soybean; assay: Test C preemergence; type: in vivo, Glycine max; conditions: 0 to 100 scale (0 no effect, 100 complete control); for Plant response rating, Soybean: Preemergence, 500 g ai/ha, visual rating after 10 days; for Soybean plant response rating: Test C, preemergence, 125 g ai/ha
Procedure, shortened: as §1

[18] = system: kochia; assay: Test C preemergence; type: in vivo, Bassia scoparia; conditions: 0 to 100 scale (0 no effect, 100 complete control); for Plant response rating, Kochia: Preemergence, 500 g ai/ha, visual rating after 10 days; for Kochia plant response rating: Test C, preemergence, 125 g ai/ha
Procedure, shortened: as §1

[19] = system: corn; assay: Test C postemergence; type: in vivo, Zea mays; conditions: 10 days
Procedure, shortened: as §1

[20] = system: pigweed, palmer; assay: Test C postemergence; type: in vivo, Amaranthus palmeri; conditions: 10 days
Procedure, shortened: as §1

[21] = system: barnyardgrass; assay: Test C preemergence; type: in vivo, Echinochloa crusgalli; conditions: 0 to 100 scale (0 no effect, 100 complete control); for Plant response rating, Barnyardgrass: Preemergence, 500 g ai/ha, visual rating after 10 days; for Barnyardgrass plant response rating: Test C, preemergence, 125 g ai/ha
Procedure, shortened: as §1

[22] = system: sedge, umbrella; assay: Test D flooded paddy test; type: in vivo, Cyperus difformis; conditions: 250 g ai/ha, applied to paddy water, visual rating after 13 to 14 days, scale 0 to 100 (0 no effect, 100 complete control)
Procedure, shortened: as §2

[23] = system: ragweed; assay: Test C preemergence; type: in vivo, Ambrosia artemisiifolia; conditions: 0 to 100 scale (0 no effect, 100 complete control); for Plant response rating, Ragweed: Preemergence, 500 g ai/ha, visual rating after 10 days; for Ragweed plant response rating: Test C, preemergence, 125 g ai/ha
Procedure, shortened: as §1

[24] = system: galium; assay: Test C postemergence; type: in vivo, Galium aparine; conditions: 10 days
Procedure, shortened: as §1

[25] = system: pigweed, palmer; assay: Test C preemergence; type: in vivo, Amaranthus palmeri; conditions: 0 to 100 scale (0 no effect, 100 complete control); for Plant response rating, Pigweed, Palmer: Preemergence, 500 g ai/ha, visual rating after 10 days; for Pigweed, Palmer plant response rating: Test C, preemergence, 125 g ai/ha
Procedure, shortened: as §1

[26] = system: barnyardgrass; assay: Test D flooded paddy test; type: in vivo, Echinochloa crus-galli; conditions: 250 g ai/ha, applied to paddy water, visual rating after 13 to 14 days, scale 0 to 100 (0 no effect, 100 complete control)
Procedure, shortened: as §2

[27] = system: ryegrass, Italian; assay: Test C preemergence; type: in vivo, Lolium multiflorum; conditions: 0 to 100 scale (0 no effect, 100 complete control); for Plant response rating, Ryegrass, Italian: Preemergence, 500 g ai/ha, visual rating after 10 days; for Ryegrass, Italian plant response rating: Test C, preemergence, 125 g ai/ha
Procedure, shortened: as §1

[28] = system: blackgrass; assay: Test C preemergence; type: in vivo, Alopecurus myosuroides; conditions: 0 to 100 scale (0 no effect, 100 complete control); for Plant response rating, Blackgrass: Preemergence, 500 g ai/ha, visual rating after 10 days; for Blackgrass plant response rating: Test C, preemergence, 125 g ai/ha
Procedure, shortened: as §1

[29] = 125 g ai/ha, postemergence, 0 to 100 scale, 0 no effect, 100 complete control
[30] = Postemergence, 500 g ai/ha, visual 0 to 100 scale (0 no effect, 100 complete control)

CC(C)c1ncn(-c2ccc([S+]([O-])C(F)(F)F)c(C(=O)N3C[C@H](C)Oc4c(Cl)cccc43)c2)n1 (some centres unmarked) [Compound 191]
90: Plant response rating, Soybean [13, 30]
50: Plant response rating, Galium [24, 30]
20: Plant response rating, Kochia [10, 29] | Plant response rating, Kochia [10, 30] | Plant response rating, Ryegrass, Italian [27] | Plant response rating, Blackgrass [28]
0: Plant response rating, Corn [1] | Corn plant response rating [1] | Plant response rating, Ryegrass, Italian [2, 29] | Plant response rating, Ryegrass, Italian [2, 30] | Plant response rating, Oat, Wild [3, 29] | Plant response rating, Oat, Wild [3, 30] | Plant response rating, Oat, Wild [4] | Oat, Wild plant response rating [4] | Plant response rating, Wheat [5] | Wheat plant response rating [5] | Plant response rating, Horseweed [7, 29] | Plant response rating, Horseweed [7, 30] | Plant response rating, Foxtail, Green [9] | Foxtail, Green plant response rating [9] | Plant response rating, Ducksalad (Flood) [11] | Plant response rating, Rice (Flood) [12] | Plant response rating, Ragweed [14, 29] | Plant response rating, Ragweed [14, 30] | Plant response rating, Blackgrass [15, 29] | Plant response rating, Blackgrass [15, 30] | Plant response rating, Foxtail, Green [16, 29] | Plant response rating, Foxtail, Green [16, 30] | Plant response rating, Soybean [17] | Soybean plant response rating [17] | Plant response rating, Kochia [18] | Plant response rating, Corn [19, 29] | Plant response rating, Corn [19, 30] | Plant response rating, Pigweed, Palmer [20, 29] | Plant response rating, Barnyardgrass [21] | Barnyardgrass plant response rating [21] | Plant response rating, Sedge, Umbrella (Flood) [22] | Plant response rating, Ragweed [23] | Ragweed plant response rating [23] | Plant response rating, Galium [24, 29] | Plant response rating, Pigweed, Palmer [25] | Pigweed, Palmer plant response rating [25] | Plant response rating, Barnyardgrass (Flood) [26] | Ryegrass, Italian plant response rating [27] | Blackgrass plant response rating [28]
10: Plant response rating, Barnyardgrass [6, 29] | Plant response rating, Barnyardgrass [6, 30] | Plant response rating, Wheat [8, 29] | Plant response rating, Wheat [8, 30]
40: Plant response rating, Soybean [13, 29]
30: Plant response rating, Pigweed, Palmer [20, 30]

Cc1cccc2c1O[C@@H](C)CN2C(=O)c1cc(-n2cnc(C(C)C)n2)cc2occc12 [Compound 195]
20: Oat, Wild plant response rating [4] | Plant response rating, Wheat [8, 29]
40: Plant response rating, Ryegrass, Italian [2, 29] | Plant response rating, Blackgrass [28]
70: Plant response rating, Horseweed [7, 30] | Plant response rating, Ducksalad (Flood) [11] | Plant response rating, Ragweed [14, 29] | Plant response rating, Ragweed [14, 30] | Soybean plant response rating [17] | Kochia plant response rating [18]
10: Plant response rating, Oat, Wild [3, 29]
80: Plant response rating, Ryegrass, Italian [2, 30] | Plant response rating, Oat, Wild [4] | Plant response rating, Wheat [5] | Plant response rating, Corn [19, 30] | Ryegrass, Italian plant response rating [27]
50: Plant response rating, Wheat [8, 30] | Plant response rating, Blackgrass [15, 29] | Plant response rating, Foxtail, Green [16, 29] | Plant response rating, Corn [19, 29]
90: Plant response rating, Oat, Wild [3, 30] | Plant response rating, Horseweed [7, 29] | Plant response rating, Kochia [10, 29] | Plant response rating, Blackgrass [15, 30] | Plant response rating, Foxtail, Green [16, 30] | Plant response rating, Pigweed, Palmer [20, 29] | Barnyardgrass plant response rating [21] | Plant response rating, Galium [24, 29]
45: Plant response rating, Barnyardgrass (Flood) [26]
98: Plant response rating, Sedge, Umbrella (Flood) [22]
0: Plant response rating, Corn [1] | Corn plant response rating [1] | Wheat plant response rating [5] | Plant response rating, Rice (Flood) [12]
100: Plant response rating, Foxtail, Green [9] | Foxtail, Green plant response rating [9] | Plant response rating, Kochia [10, 30] | Plant response rating, Soybean [13, 29] | Plant response rating, Soybean [13, 30] | Plant response rating, Soybean [17] | Plant response rating, Kochia [18] | Plant response rating, Pigweed, Palmer [20, 30] | Plant response rating, Barnyardgrass [21] | Plant response rating, Ragweed [23] | Plant response rating, Galium [24, 30] | Plant response rating, Pigweed, Palmer [25] | Pigweed, Palmer plant response rating [25] | Plant response rating, Ryegrass, Italian [27]
30: Plant response rating, Barnyardgrass [6, 29] | Blackgrass plant response rating [28]
60: Plant response rating, Barnyardgrass [6, 30] | Ragweed plant response rating [23]

COc1ccc(-n2cnc(C(C)C)n2)cc1C(=O)N1C[C@H](C)Oc2c(C)cccc21 [Compound 210]
100: Plant response rating, Barnyardgrass [6, 30] | Plant response rating, Foxtail, Green [9] | Foxtail, Green plant response rating [9] | Plant response rating, Soybean [17] | Plant response rating, Kochia [18] | Plant response rating, Pigweed, Palmer [20, 30] | Plant response rating, Barnyardgrass [21] | Barnyardgrass plant response rating [21] | Plant response rating, Sedge, Umbrella (Flood) [22] | Plant response rating, Galium [24, 29] | Plant response rating, Galium [24, 30] | Plant response rating, Pigweed, Palmer [25] | Pigweed, Palmer plant response rating [25] | Plant response rating, Ryegrass, Italian [27] | Ryegrass, Italian plant response rating [27] | Plant response rating, Blackgrass [28]
15: Plant response rating, Rice (Flood) [12]
30: Corn plant response rating [1] | Ragweed plant response rating [23]
50: Plant response rating, Barnyardgrass [6, 29] | Plant response rating, Wheat [8, 29]
85: Plant response rating, Ducksalad (Flood) [11]
90: Plant response rating, Ryegrass, Italian [2, 30] | Plant response rating, Oat, Wild [4] | Plant response rating, Wheat [5] | Wheat plant response rating [5] | Plant response rating, Wheat [8, 30] | Plant response rating, Kochia [10, 30] | Plant response rating, Blackgrass [15, 29] | Plant response rating, Blackgrass [15, 30] | Plant response rating, Foxtail, Green [16, 29] | Plant response rating, Foxtail, Green [16, 30] | Soybean plant response rating [17] | Kochia plant response rating [18] | Plant response rating, Corn [19, 30] | Plant response rating, Pigweed, Palmer [20, 29]
60: Plant response rating, Corn [1] | Plant response rating, Ryegrass, Italian [2, 29] | Oat, Wild plant response rating [4] | Plant response rating, Ragweed [14, 29]
0: Plant response rating, Soybean [13, 29]
10: Plant response rating, Soybean [13, 30]
70: Plant response rating, Kochia [10, 29]
20: Plant response rating, Barnyardgrass (Flood) [26]
80: Plant response rating, Oat, Wild [3, 29] | Plant response rating, Oat, Wild [3, 30] | Plant response rating, Horseweed [7, 29] | Plant response rating, Horseweed [7, 30] | Plant response rating, Ragweed [14, 30] | Plant response rating, Corn [19, 29] | Plant response rating, Ragweed [23] | Blackgrass plant response rating [28]

Reference: patent US20260262643A1, “HERBICIDAL BENZOXAZINES” (FMC CORPORATION, priority 2022, published 2026)
